Experimental data published in patent US10681909B2, “Herbicidal triazoles” (FMC Corporation, priority 2014, dated 2020).

Columns and labels:
chickweed = assay: Test C postemergence; assay type: in vivo, Stellaria media
How it was run: (§1)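 Pre: seeded into loam/sand, sprayed same time. Post: plants in peat moss–vermiculite mix with starter nutrients and dolomitic limestone, treated at 1- to 4-leaf stage (2 to 18 cm). Formulation: non-phytotoxic solvent blend plus surfactant.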

corn = assay: Test A postemergence; assay type: in vivo, Zea mays; conditions: Zea mays, post-emergence, 240 h, 0 to 100 scale (0 no effect, 100 complete control), approx. 10 d; for Corn plant response rating (crop injury, 0 = no effect, 100 = complete kill) at 125 g/ha: 125 g ai/ha; for Corn plant response rating (crop injury, 0 = no effect, 100 = complete kill) at 500 g/ha: 500 g ai/ha
How it was run: (§2)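 Loam/sand soil mix; compound in non-phytotoxic solvent + surfactant. Pre: directed soil spray right after planting seed. Post: potted plants 2–10 cm, 1–2 leaf stage, sprayed with same formulation.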

ragweed = assay: Test C postemergence; assay type: in vivo, Ambrosia elatior
How it was run: as §1

rice = assay: Test B flooded paddy test; assay type: in vivo, Oryza sativa; conditions: Oryza sativa, 360 h, applied to paddy water at 2-leaf stage, visual rating after 13 to 15 d, scale 0 (no effect) to 100 (complete control), read-out: Plant response rating, Rice, Flood
How it was run: (§3)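 Pots were flooded to 3 cm above the soil at treatment, and compounds were applied directly into the paddy water. That depth was held throughout. After 13 to 15 d in a greenhouse, plants were rated visually against untreated controls.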

lambsquarters = assay: Test C postemergence; assay type: in vivo, Chenopodium album
How it was run: as §1

ducksalad = assay: Test B flooded paddy test; assay type: in vivo, Heteranthera limosa; conditions: Heteranthera limosa, 360 h, applied to paddy water at 2-leaf stage, visual rating after 13 to 15 d, scale 0 (no effect) to 100 (complete control), read-out: Plant response rating, Ducksalad, Flood
How it was run: as §3

pigweed [1] = assay: Test C postemergence; assay type: in vivo, Amaranthus retroflexus
How it was run: as §1

wheat = assay: Test A preemergence; assay type: in vivo, Triticum aestivum; conditions: Triticum aestivum, pre-emergence, 240 h, 0 to 100 scale (0 no effect, 100 complete control), read-out: Plant response rating, Wheat; for plant injury at 125 g/ha: 125 g ai/ha; for plant injury at 500 g/ha: 500 g ai/ha, approx. 10 d
How it was run: as §2

barnyardgrass = assay: Test B flooded paddy test; assay type: in vivo, Echinochloa crus-galli; conditions: Echinochloa crus-galli, 360 h, applied to paddy water at 2-leaf stage, visual rating after 13 to 15 d, scale 0 (no effect) to 100 (complete control), read-out: Plant response rating, Barnyardgrass, Flood
How it was run: as §3

foxtail, giant = assay: Test C postemergence; assay type: in vivo, Setaria faberii
How it was run: as §1

pigweed [2] = assay: Test A preemergence; assay type: in vivo, Amaranthus retroflexus; conditions: Amaranthus retroflexus, pre-emergence, 240 h, 0 to 100 scale (0 no effect, 100 complete control), read-out: Plant response rating, Pigweed; for pest or weed control at 125 g/ha: 125 g ai/ha; for pest or weed control at 500 g/ha: 500 g ai/ha, approx. 10 d
How it was run: as §2

oat, wild = assay: Test C postemergence; assay type: in vivo, Avena fatua
How it was run: as §1

soybean = assay: Test C postemergence; assay type: in vivo, Glycine max
How it was run: as §1

wheat (winter wheat) = assay: Test C postemergence; assay type: in vivo, Triticum aestivum
How it was run: as §1

Question: Which “Plant response rating (scale of 0 to 100 where 0 is no effect and 100 is complete control)” value (chickweed; 31 g ai/ha) does the source give for `CCCc1nc(-c2ccc(F)cc2)nn1Cc1ccnc(C(F)(F)F)c1` [Compound 6, 4-[[3-(4-fluorophenyl)-5-propyl-1H-1,2,4-triazol-1-yl]methyl]-2-(trifluoromethyl)pyridine] here?
Answer: 70

Question: And the “Plant response rating (scale of 0 to 100 where 0 is no effect and 100 is complete control)” value (chickweed; 62 g ai/ha)?
Answer: 80

Question: And the “Plant response rating (scale of 0 to 100 where 0 is no effect and 100 is complete control)” value (chickweed; 125 g ai/ha)?
Answer: 85

Question: And the “Plant response rating (scale of 0 to 100 where 0 is no effect and 100 is complete control)” value (chickweed; 250 g ai/ha)?
Answer: 95

Question: What about the Corn plant response rating (crop injury, 0 = no effect, 100 = complete kill) at 125 g/ha (corn) of the same molecule?
Answer: 40%

Question: What about the Corn plant response rating (crop injury, 0 = no effect, 100 = complete kill) at 500 g/ha (corn) of the same molecule?
Answer: 70%

Question: What about the “Plant response rating (scale of 0 to 100 where 0 is no effect and 100 is complete control)” value (ragweed; 31 g ai/ha) of the same molecule?
Answer: 75

Question: What about the “Plant response rating (scale of 0 to 100 where 0 is no effect and 100 is complete control)” value (ragweed; 62 g ai/ha) of the same molecule?
Answer: 75

Question: And the “Plant response rating (scale of 0 to 100 where 0 is no effect and 100 is complete control)” value (ragweed; 250 g ai/ha)?
Answer: 80

Question: And the plant injury at 250 g/ha (rice; 250 g ai/ha)?
Answer: 50%

Question: And the “Plant response rating (scale of 0 to 100 where 0 is no effect and 100 is complete control)” value (lambsquarters; 31 g ai/ha)?
Answer: 65

Question: What about the “Plant response rating (scale of 0 to 100 where 0 is no effect and 100 is complete control)” value (lambsquarters; 62 g ai/ha) of the same molecule?
Answer: 70

Question: What about the “Plant response rating (scale of 0 to 100 where 0 is no effect and 100 is complete control)” value (lambsquarters; 125 g ai/ha) of the same molecule?
Answer: 85

Question: And the “Plant response rating (scale of 0 to 100 where 0 is no effect and 100 is complete control)” value (lambsquarters; 250 g ai/ha)?
Answer: 85

Question: What about the pest or weed control at 250 g/ha (ducksalad; 250 g ai/ha) of the same molecule?
Answer: 70%

Question: What about the “Plant response rating (scale of 0 to 100 where 0 is no effect and 100 is complete control)” value (pigweed [1]; 31 g ai/ha) of the same molecule?
Answer: 80

Question: What about the “Plant response rating (scale of 0 to 100 where 0 is no effect and 100 is complete control)” value (pigweed [1]; 62 g ai/ha) of the same molecule?
Answer: 80

Question: And the “Plant response rating (scale of 0 to 100 where 0 is no effect and 100 is complete control)” value (pigweed [1]; 125 g ai/ha)?
Answer: 85

Question: And the “Plant response rating (scale of 0 to 100 where 0 is no effect and 100 is complete control)” value (pigweed [1]; 250 g ai/ha)?
Answer: 85

Question: And the plant injury at 125 g/ha (wheat)?
Answer: 10%

Question: And the plant injury at 500 g/ha (wheat)?
Answer: 60%

Question: And the pest or weed control at 250 g/ha (barnyardgrass; 250 g ai/ha)?
Answer: 40%

Question: And the “Plant response rating (scale of 0 to 100 where 0 is no effect and 100 is complete control)” value (foxtail, giant; 31 g ai/ha)?
Answer: 40

Question: What about the “Plant response rating (scale of 0 to 100 where 0 is no effect and 100 is complete control)” value (foxtail, giant; 62 g ai/ha) of the same molecule?
Answer: 40

Question: What about the “Plant response rating (scale of 0 to 100 where 0 is no effect and 100 is complete control)” value (foxtail, giant; 125 g ai/ha) of the same molecule?
Answer: 45

Question: And the “Plant response rating (scale of 0 to 100 where 0 is no effect and 100 is complete control)” value (foxtail, giant; 250 g ai/ha)?
Answer: 75

Question: And the pest or weed control at 125 g/ha (pigweed [2])?
Answer: 100%

Question: What about the pest or weed control at 500 g/ha (pigweed [2]) of the same molecule?
Answer: 100%

Question: And the “Plant response rating (scale of 0 to 100 where 0 is no effect and 100 is complete control)” value (oat, wild; 31 g ai/ha)?
Answer: 5

Question: And the “Plant response rating (scale of 0 to 100 where 0 is no effect and 100 is complete control)” value (oat, wild; 62 g ai/ha)?
Answer: 5

Question: What about the “Plant response rating (scale of 0 to 100 where 0 is no effect and 100 is complete control)” value (oat, wild; 125 g ai/ha) of the same molecule?
Answer: 10

Question: And the “Plant response rating (scale of 0 to 100 where 0 is no effect and 100 is complete control)” value (oat, wild; 250 g ai/ha)?
Answer: 10

Question: What about the “Plant response rating (scale of 0 to 100 where 0 is no effect and 100 is complete control)” value (soybean; 31 g ai/ha) of the same molecule?
Answer: 35

Question: What about the “Plant response rating (scale of 0 to 100 where 0 is no effect and 100 is complete control)” value (soybean; 62 g ai/ha) of the same molecule?
Answer: 40

Question: What about the “Plant response rating (scale of 0 to 100 where 0 is no effect and 100 is complete control)” value (soybean; 125 g ai/ha) of the same molecule?
Answer: 60

Question: What about the “Plant response rating (scale of 0 to 100 where 0 is no effect and 100 is complete control)” value (wheat (winter wheat); 31 g ai/ha) of the same molecule?
Answer: 5

Question: And the “Plant response rating (scale of 0 to 100 where 0 is no effect and 100 is complete control)” value (wheat (winter wheat); 62 g ai/ha)?
Answer: 10

Question: What about the “Plant response rating (scale of 0 to 100 where 0 is no effect and 100 is complete control)” value (wheat (winter wheat); 125 g ai/ha) of the same molecule?
Answer: 15

Question: What about the “Plant response rating (scale of 0 to 100 where 0 is no effect and 100 is complete control)” value (wheat (winter wheat); 250 g ai/ha) of the same molecule?
Answer: 15

Question: With `CS(=O)(=O)c1nc(-c2ccc(F)cc2)nn1Cc1ccnc(C(F)(F)F)c1` [Compound 29, 4-[[3-(4-fluorophenyl)-5-(methylsulfonyl)-1H-1,2,4-triazole-1-yl]methyl]-2-(trifluoromethyl)pyridine] as the molecule, how does the Corn plant response rating (crop injury, 0 = no effect, 100 = complete kill) at 125 g/ha (corn) read?
Answer: 0%

Question: What about the Corn plant response rating (crop injury, 0 = no effect, 100 = complete kill) at 500 g/ha (corn) of the same molecule?
Answer: 0%

Question: What about the plant injury at 125 g/ha (rice; 125 g ai/ha) of the same molecule?
Answer: 0%

Question: What about the pest or weed control at 125 g/ha (ducksalad; 125 g ai/ha) of the same molecule?
Answer: 0%

Question: And the plant injury at 125 g/ha (wheat)?
Answer: 0%

Question: What about the plant injury at 500 g/ha (wheat) of the same molecule?
Answer: 0%

Question: What about the pest or weed control at 125 g/ha (barnyardgrass; 125 g ai/ha) of the same molecule?
Answer: 0%

Question: What about the pest or weed control at 125 g/ha (pigweed [2]) of the same molecule?
Answer: 0%

Question: And the pest or weed control at 500 g/ha (pigweed [2])?
Answer: 0%
